Assay results reported in patent US20260137707A1, “METHODS OF MODULATING ATXN2 EXPRESSION” (University of Utah Research Foundation, priority 2022, published 2026).
“Also recorded” adds a separate entry of the source.

Experiments:
ATXN2-luc mRNA = ATXN2-luc mRNA abundance in H2 cells by quantitative PCR; type: cell-based; details: 1 and 10 uM, 48 hrs
From the text: Total RNA was extracted from cells cultured in 24-well plates using the RNeasy Mini-Kit (Qiagen Inc.) according to the manufacturer's protocol. DNAse I treated RNAs were used to synthesize cDNA using ProtoScript cDNA synthesis kit (New England Biolabs Inc.). Sets of primers used for qPCR included ATXN2 primers ATXN2-F (5′-[sequence]-3′) & ATXN2-R (5′-[sequence]-3′), ATP1A2 primers ATP1A2-F (5′-[sequence]-3′) & ATP1A2-R (5′-[sequence]-3′), GAPDH primers GAPDH-F133 (5′-[sequence]-3′) & GAPDH-R333 (5′-[sequence]-3′), and mouse Actb primers Actb-F (5′-[sequence]-3′) & Actb-R (5′-[sequence]-3′). qPCR was performed in the Bio-Rad CFX96 instrument (Bio-Rad Inc.) with the Power SYBR Green PCR master mix (Applied Biosystems Inc.). PCR amplification was carried out for 45 cycles. Cycling parameters were denaturation (95° C. for 10 s), annealing (60° C. for 10 s), extension (72° C. for 40 s).
The ATXN2-luc mRNA abundance was determined by quantitative PCR using primers that amplify the luciferase gene. Probabilities are from one-way ANOVA and post-hoc Bonferroni corrected t-tests: ns, not significant; **, P<0.01.

[1] = test system: endogenous non-mutant ATXN2 protein; assay: Western blot of endogenous non-mutant ATXN2 protein in HEK-293 cells; type: cell-based; details: western blotting
mutant ATXN2-Q58 protein = assay: Western blot of mutant ATXN2-Q58 protein in HEK-293 KI cells; type: cell-based; details: western blotting
From the text: The n number of blots ranged from 3 to 9.

HSP70 [2] = assay: Western blot of HSP70 in cells (HSP90 target engagement); type: cell-based; details: cultured cells, western blotting
From the text: Probabilities are from one-way ANOVA and post-hoc Bonferroni corrected t-tests: ns, not significant; **, P<0.01.
Probabilities are from one-way ANOVA and post-hoc Bonferroni corrected t-tests: ns, not significant; *, p<0.05; **, p<0.01, ***, p<0.001. The n number of blots ranged from 3 to 9.

[3] = test system: STAU1, mTOR, p62, LC3b, CHOP, eIF3α, BiP; assay: Western blot of STAU1, autophagy and UPR proteins in ATXN2-Q58 HEK-293 KI cells; type: cell-based
From the text: (§1) Antibodies included the following: mouse monoclonal anti-Ataxin-2 antibody (Clone 22/Ataxin-2) (BD Biosciences, 611378), rabbit monoclonal anti-Hsp70 antibody (EPR16892) (Abcam, ab181606), mouse monoclonal anti-β-Actin-peroxidase antibody (clone AC-15) (Sigma-Aldrich, A3854), rabbit polyclonal anti-Staufen antibody (Novus Biologicals, NBP1-33202), mouse monoclonal anti-CHOP (L63F7) antibody (Cell Signaling Technology, 2895), rabbit polyclonal anti-phospho-eIF2a (Ser51) antibody (Cell Signaling Technology, 9721), rabbit polyclonal anti-mTOR antibody (Cell Signaling Technology, 2972), rabbit polyclonal anti-SQSTM1/p62 antibody (Cell Signaling Technology, 5114), rabbit polyclonal anti-LC3B antibody (Novus Biologicals, NB100-2220), rabbit monoclonal anti-BiP antibody (C50B12) (Cell Signaling Technology, 3177). Secondary antibodies included peroxidase-conjugated horse anti-mouse IgG (Vector Laboratories, PI-2000) and peroxidase AffiniPure goat anti-rabbit IgG (Jackson ImmunoResearch Laboratories, 111-035-144).
To determine if lowering ATXN2-Q58 in HEK-293 KI cells could restore pathways that are abnormal in SCA2, several proteins were evaluated by western blotting and RNAs by quantitative PCR following 17-DMAG treatment. […] Probabilities are from one-way ANOVA and post-hoc Bonferroni corrected t-tests: ns, not significant; *, p<0.05; **, p<0.01, ***, p<0.001. […]

ATXN2-Q22 = assay: BAC-Q22 mice, ATXN2 western blot; type: in vivo; details: for reduction of ATXN2 protein abundance: ATXN2-BAC mice, IP, 17-DMAG 100 mg/kg, HSP990 4 mg/kg; for ATXN2 abundance: BAC-Q22 mice, IP every other day, 17-DMAG 100 mg/kg 16 days, HSP990 4 mg/kg 10 days
Method: (§2) BAC-ATXN2-Q22 (BAC-Q22) mice were used as previously described. BAC-Q22 are transgenic for the complete human ATXN2 gene with all introns and exons, including 16 kb upstream sequence driving ATXN2 expression and the complete 3′-UTR. The mice used in this study were maintained on a mixed B6;D2 background with backcrossing to wildtype vendor-purchased (Jackson Laboratories) mice every five generations. Mice were treated with 17-DMAG or HSP990 by intraperitoneal (IP) injection, 200-300 μl total volume. 17-DMAG was diluted in 40% DMSO and 0.05% Tween 20 and mice received 100 mg/kg 17-DMAG. HSP990 was diluted in 0.6% DMSO and 0.05% Tween 20 and mice received 4 mg/kg HSP990. Control treated mice included vehicle alone. Mice were treated repeatedly as described in Results. Mouse husbandry and surgical procedures were in accordance to Institutional Animal Care and Use Committee (IACUC) approved protocols.
Proteins were prepared, separated on precast polyacrylamide gels (Bio-Rad), transferred to Hybond (Amersham) and detected by ECL (Amersham) as previously described.
as §1
Since 17-DMAG reduced expression of both the wildtype and mutant ATXN2 proteins, its effects were tested using only ATXN2-BAC mice harboring the non-mutant human ATXN2-Q22 gene (BAC-Q22 mice). Reliable detection of mutant ATXN2 protein by western blot in samples isolated from SCA2 BAC mice is possible, but it is challenging and involves use of the 1C2 antibody. To test efficacy of 17-DMAG in the wildtype ATXN2 mice, 27 wk old BAC-Q22 mice were treated (n=4 per group, 2 males, 2 females) every other day over 16-days (days 1, 3, 5, 7, 9, 11, 13, 15) then sacrificed on day 16. […] Three blots were quantified.

HSP70 [4] = assay: BAC-Q22 mice, HSP70 western blot; type: in vivo; details: IP every other day, 17-DMAG 100 mg/kg, HSP990 4 mg/kg
Method: as §2
Proteins were prepared, separated on precast polyacrylamide gels (Bio-Rad), transferred to Hybond (Amersham) and detected by ECL (Amersham) as previously described. […]
Since 17-DMAG reduced expression of both the wildtype and mutant ATXN2 proteins, its effects were tested using only ATXN2-BAC mice harboring the non-mutant human ATXN2-Q22 gene (BAC-Q22 mice). […] Three blots were quantified.

[5] = BAC-Q22 mice, survival / tolerability; type: in vivo; details: IP every other day, 17-DMAG 100 mg/kg, HSP990 4 mg/kg
Method: as §2
Since 17-DMAG reduced expression of both the wildtype and mutant ATXN2 proteins, its effects were tested using only ATXN2-BAC mice harboring the non-mutant human ATXN2-Q22 gene (BAC-Q22 mice). Reliable detection of mutant ATXN2 protein by western blot in samples isolated from SCA2 BAC mice is possible, but it is challenging and involves use of the 1C2 antibody. […] Three blots were quantified. […]

ATXN3 = details: ATXN3-135Q transgenic mice, cited from earlier work
[6] = cited from earlier work
[7] = cited from earlier work; remark: listed apart in the source

CO[C@H]1/C=C\C=C(/C)C(=O)NC2=CC(=O)C(NCCN(C)C)=C(C[C@@H](C)C[C@H](OC)[C@H](O)[C@@H](C)/C=C(\C)[C@@H]1OC(N)=O)C2=O [17-DMAG, 17-dimethylaminoethylamino-17-demethoxygeldanamycin]
ATXN2-luc transcription (ATXN2-luc mRNA): reduction of ATXN2-luc transcription
expression of endogenous non-mutant ATXN2 protein [1]: reduced the expression; also recorded: reduction of endogenous non-mutant ATXN2 protein
mutant ATXN2-Q58 protein (mutant ATXN2-Q58 protein): reduced the expression; also recorded: significantly reduced mutant ATXN2 protein; also recorded: reduction of ATXN2 protein
HSP70 (HSP70 [2]): elevated HSP70; also recorded: increase in HSP70
BiP [3]: further elevated BiP
abundance of STAU1, autophagy marker proteins (mTOR, p62, LC3b) and UPR proteins CHOP and eIF3α [3]: restored abundance
reduction of ATXN2 protein abundance (ATXN2-Q22): 90%
ATXN2 abundance (ATXN2-Q22): reduced ATXN2 abundance
HSP70 (HSP70 [4]): HSP70 induction
survival / tolerability [5]: well-tolerated
ATXN3 protein abundance (ATXN3; CNS tissues): reduced ATXN3 protein abundance in CNS tissues
motor coordination (ATXN3): improved motor coordination
oral bioavailability [6]: orally bioavailable

COc1cccc(-c2cc(F)ccc2[C@H]2Cc3nc(N)nc(C)c3C(=O)N2)n1 [HSP990]
reduction of ATXN2 protein abundance (ATXN2-Q22): 80%
ATXN2 abundance (ATXN2-Q22): reduced ATXN2 abundance
HSP70 (HSP70 [4]): increased HSP70
survival / tolerability [5]: the two females in the HSP990 treatment group did not survive; also recorded: half of the mice treated with HSP990 did not survive treatment
toxicity in clinical trial [7]: dose-limiting neurotoxicities
